# In US7524964B2, “Tetrahydrothiopyrano pyrazole cannabinoid modulators” (Janssen Pharmaceutica NV, priority 2005, dated 2009):
# Read-outs that look alike come from different tables or passages of the source.
# Tests used:
# human CB1 receptor = human CB1 receptor (Homo sapiens, UniProt P21554); assay: Binding assay, cannabinoid CB1 receptor ([3H]-CP-55,940 displacement); set-up: expressed in transfected cells; host or cells: SK-N-MC cells, pcDNA3 CB-1 (human), semi-purified membranes; details: for inhibition at 0.2 µM: test concentration 0.2 μM (superscript a); for inhibition at 1 µM: test concentration 1 μM (superscript b)
# Experimental: (§1) Binding Assay for CB1 or CB2 Agonists or Inverse Agonists
# (§2) The human CB-1 and CB-2 receptors were stably expressed in SK-N-MC cells transfected with pcDNA3 CB-1 (human) or pcDNA3 CB-2 (human). The cells were grown in T-180 cell culture flasks under standard cell culture conditions at 37° C. in a 5% CO2 atmosphere. The cells were harvested by trypsinization and homogenized in a homogenization buffer (10 mM Tris, 0.2 mM MgCl2, 5 mM KCl, with protease inhibitors aprotinin, leupeptin, pepstatin A and bacitracin) and centrifuged (2000 g). The supernatant was then centrifuged in 2M sucrose (31,300 g) to produce a semi-purified membrane pellet. The pellet was resuspended in homogenization and store at −80° C.
# (§3) On the day of the assay, the pellet was thawed on ice and diluted in assay buffer (50 mM Tris-HCl, 5 mM MgCl2, 2.5 mM EDTA, 0.5 mg/mL fatty acid free bovine serum albumin, pH 7.5). The diluted membrane was added with buffer, test compound or standard and the radioligand [H]^3+-CP-55,940_(0.2 nM) to the wells of a 96-well polypropylene plate. Non-specific binding was measured in wells containing 10 uM WIN 55,212. The plate was covered and incubated for 90 minutes at 30° C. The contents were then aspirated onto a Packard Unifilter G/C filter bottom plate prewet with 0.5% polyethyleneimine. The wells of the polypropylene plate were rinsed and aspirated seven times with a 0.9% saline-0.5% Tween 20 solution. The Unifilter plate was dried, a scintillation cocktail was added to each well and the counts representing binding were quantitated in a TopCount scintillation counter.
# (§4) The IC50 binding values for compounds tested were calculated by linear regression and were obtained from studies in which varying compound concentrations were used. Where an IC50 was not obtained, test results are provided as percent inhibition at a test concentration of ^a0.2 μM, ^b1 μM or ^c10 μM.
# human CB-2 receptor = molecular target: T1, human CB-2 receptor (Homo sapiens, UniProt P34972); assay: Binding assay, cannabinoid CB2 receptor ([3H]-CP-55,940 displacement); details: read-out: CB2 binding percent inhibition; for inhibition at 1 µM: test concentration 1 μM (superscript b)
# T1 construct: expressed in transfected cells; host or cells: SK-N-MC cells, pcDNA3 CB-2 (human), semi-purified membranes
# Experimental: as §1, §2, §3, §4
# [1] = read-out: CB1 binding percent inhibition
# [2] = test concentration 0.2 μM (superscript a)
# human CB1 receptor, sequence (P21554 whole entry): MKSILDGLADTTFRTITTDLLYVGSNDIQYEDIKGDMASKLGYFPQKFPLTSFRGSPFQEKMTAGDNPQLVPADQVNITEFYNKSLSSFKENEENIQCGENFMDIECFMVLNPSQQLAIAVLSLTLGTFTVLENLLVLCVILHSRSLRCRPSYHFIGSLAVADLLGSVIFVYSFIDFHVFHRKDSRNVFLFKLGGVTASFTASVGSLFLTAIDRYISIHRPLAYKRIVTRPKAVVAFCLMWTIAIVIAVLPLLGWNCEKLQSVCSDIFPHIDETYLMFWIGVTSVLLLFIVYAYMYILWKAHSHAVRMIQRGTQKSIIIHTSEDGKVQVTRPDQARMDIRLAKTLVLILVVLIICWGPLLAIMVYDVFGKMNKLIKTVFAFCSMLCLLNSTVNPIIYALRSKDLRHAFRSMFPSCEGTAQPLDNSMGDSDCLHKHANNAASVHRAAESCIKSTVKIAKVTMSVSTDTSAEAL
# T1 sequence (P34972 whole entry): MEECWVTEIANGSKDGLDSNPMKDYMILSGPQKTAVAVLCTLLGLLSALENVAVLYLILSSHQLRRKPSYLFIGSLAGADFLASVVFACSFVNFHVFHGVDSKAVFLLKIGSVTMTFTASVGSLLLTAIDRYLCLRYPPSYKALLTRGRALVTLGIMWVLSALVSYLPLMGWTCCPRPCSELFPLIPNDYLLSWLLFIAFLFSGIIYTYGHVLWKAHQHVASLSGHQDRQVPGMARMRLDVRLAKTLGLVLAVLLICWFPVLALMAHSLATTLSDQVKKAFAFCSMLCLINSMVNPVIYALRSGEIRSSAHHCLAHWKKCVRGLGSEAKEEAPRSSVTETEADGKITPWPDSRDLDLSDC
Structure (SMILES),inhibition at 0.2 µM (human CB1 receptor; [1]),inhibition at 0.2 µM (human CB-2 receptor; [2]),IC50 (human CB1 receptor),further results
"C[C@H](NS(=O)(=O)/C=C/c1n[nH]c2c1CSCC2Cc1cccc(F)c1)c1ccccc1 (stereo partly drawn) [Cpd 47, (E)-2-[7-(3-fluoro-benzyl)-1,4,6,7-tetrahydro-thiopyrano[4,3-c]pyrazol-3-yl]-ethenesulfonic acid [(1S)-1-phenyl-ethyl]-amide]",24%,26%,,
"O=C(N[C@@H]1CCC[C@H]1O)c1nn(-c2ccc(Cl)cc2Cl)c2c1CSC/C2=C\c1ccc(F)cc1 [Cpd 60, (7Z)-1-(2,4-dichloro-phenyl)-7-(4-fluoro-benzylidene)-1,4,6,7-tetrahydro-thiopyrano[4,3-c]pyrazole-3-carboxylic acid [(1R,2R)-2-hydroxy-cyclopentyl]-amide]",60%,17%,,
"C[C@@H](NC(=O)c1c2c(nn1-c1ccc(Cl)cc1Cl)/C(=C/c1ccc(F)cc1)CS(=O)(=O)C2)C1CCCCC1 [Cpd 84, (7Z)-2-(2,4-dichloro-phenyl)-7-(4-fluoro-benzylidene)-5,5-dioxo-4,5,6,7-tetrahydro-2H-5λ^6-thiopyrano[4,3-c]pyrazole-3-carboxylic acid [(1R)-1-cyclohexyl-ethyl]-amide]",,17%,0.002 µM,
"C[C@@H](NC(=O)c1c2c(nn1-c1ccc(Cl)cc1Cl)/C(=C/c1ccc(F)cc1)CSC2)c1ccccc1 [Cpd 78, (7Z)-2-(2,4-dichloro-phenyl)-7-(4-fluoro-benzylidene)-2,4,6,7-tetrahydro-thiopyrano[4,3-c]pyrazole-3-carboxylic acid [(1R)-1-phenyl-ethyl]-amide]",62%,11%,,
"O=C(c1nn(-c2ccc(Cl)cc2Cl)c2c1CS(=O)(=O)C/C2=C\c1ccc(F)cc1)N1CCCCC1 [Cpd 101, (7Z)-[1-(2,4-dichloro-phenyl)-7-(4-fluoro-benzylidene)-5,5-dioxo-4,5,6,7-tetrahydro-1H-5λ^6-thiopyrano[4,3-c]pyrazol-3-yl]-piperidin-1-yl-methanone]",61%,24%,,
"C[C@@H](NC(=O)c1nn(-c2ccc(Cl)cc2Cl)c2c1CS(=O)(=O)C/C2=C\c1ccc(F)cc1)c1ccccn1 [Cpd 124, (7Z)-1-(2,4-dichloro-phenyl)-7-(4-fluoro-benzylidene)-5,5-dioxo-4,5,6,7-tetrahydro-1H-5λ^6-thiopyrano[4,3-c]pyrazole-3-carboxylic acid [(1R)-1-(pyridin-2-yl)-ethyl]-amide]",,12%,0.005 µM,
"O=C(NN1CC2CCCC2C1)c1c2c(nn1-c1ccc(Cl)cc1Cl)/C(=C/c1ccc(F)cc1)CSC2 (stereo not drawn) [Cpd 92, (7Z)-2-(2,4-dichloro-phenyl)-7-(4-fluoro-benzylidene)-2,4,6,7-tetrahydro-thiopyrano[4,3-c]pyrazole-3-carboxylic acid (hexahydro-cyclopenta[c]pyrrol-2-yl)-amide]",47%,8%,,
"C[C@H](NS(=O)(=O)/C=C/c1nn(Cc2ccccc2)c2c1CS(=O)(=O)CC2)C1CCCCC1 [Cpd 15, (E)-2-(1-benzyl-5,5-dioxo-4,5,6,7-tetrahydro-1H-5λ^6-thiopyrano[4,3-c]pyrazol-3-yl)-ethenesulfonic acid [(1S)-1-cyclohexyl-ethyl]-amide]",,,,inhibition at 1 µM (human CB1 receptor; [1]): 4%; inhibition at 1 µM (human CB-2 receptor): 0%
"O=C(NN1CC2CCCC2C1)c1nn(-c2ccc(Cl)cc2Cl)c2c1CSC/C2=C\c1ccc(F)cc1 (stereo not drawn) [Cpd 116, (7Z)-1-(2,4-dichloro-phenyl)-7-(4-fluoro-benzylidene)-1,4,6,7-tetrahydro-thiopyrano[4,3-c]pyrazole-3-carboxylic acid (hexahydro-cyclopenta[c]pyrrol-2-yl)-amide]",,18%,0.011 µM,
"O=C(N[C@H]1CCCC[C@@H]1O)c1nn(-c2ccc(Cl)cc2Cl)c2c1CS(=O)(=O)C/C2=C\c1ccc(F)cc1 [Cpd 68, (7Z)-1-(2,4-dichloro-phenyl)-7-(4-fluoro-benzylidene)-5,5-dioxo-4,5,6,7-tetrahydro-1H-5λ^6-thiopyrano[4,3-c]pyrazole-3-carboxylic acid [(1S,2S)-2-hydroxy-cyclohexyl]-amide]",52%,19%,,
"C[C@@H](NS(=O)(=O)/C=C/c1nn(-c2ccc(F)cc2F)c2c1CS(=O)(=O)CC2Cc1cccc(F)c1)C1CCCCC1 (stereo partly drawn) [Cpd 43, (E)-2-[1-(2,4-difluoro-phenyl)-7-(3-fluoro-benzyl)-5,5-dioxo-4,5,6,7-tetrahydro-1H-5λ^6-thiopyrano[4,3-c]pyrazol-3-yl]-ethenesulfonic acid [(1R)-1-cyclohexyl-ethyl]-amide]",41%,11%,,
"CC(NS(=O)(=O)/C=C/c1c2c(nn1Cc1ccccc1)CC[S+]([O-])C2)c1ccccc1 (stereo not drawn) [Cpd 22, (E)-2-(2-benzyl-5-oxo-4,5,6,7-tetrahydro-2H-5λ^4-thiopyrano[4,3-c]pyrazol-3-yl)-ethenesulfonic acid (1-phenyl-ethyl)-amide]",,,,"inhibition at 1 µM (human CB1 receptor; [1]): 11%; inhibition at 10 µM (human CB1 receptor; test concentration 10 μM (superscript c), read-out: CB1 binding percent inhibition): 0%; inhibition at 1 µM (human CB-2 receptor): 0%; inhibition at 10 µM (human CB-2 receptor; test concentration 10 μM (superscript c)): 2%"
"O=C(NN1CCCCC1)c1nn(-c2ccc(Cl)cc2Cl)c2c1CS(=O)(=O)C/C2=C\c1ccc(Cl)o1 [Cpd 119, (7Z)-7-(5-chloro-furan-2-ylmethylene)-1-(2,4-dichloro-phenyl)-5,5-dioxo-4,5,6,7-tetrahydro-1H-5λ^6-thiopyrano[4,3-c]pyrazole-3-carboxylic acid piperidin-1-ylamide]",,17%,0.081 µM,
"C[C@@H](NC(=O)c1nn(-c2ccc(Cl)cc2)c2c1CSC/C2=C\c1ccc(F)cc1)c1ccccc1 [Cpd 94, (7Z)-1-(4-chloro-phenyl)-7-(4-fluoro-benzylidene)-1,4,6,7-tetrahydro-thiopyrano[4,3-c]pyrazole-3-carboxylic acid [(1R)-1-phenyl-ethyl]-amide]",,,0.011 µM,inhibition at 0.2 µM (human CB-2 receptor): 22%
"O=S(=O)(/C=C/c1nn(-c2ccc(F)cc2F)c2c1CSCC2Cc1cccc(F)c1)NN1CCCCC1 (stereo not drawn) [Cpd 40, (E)-2-[1-(2,4-difluoro-phenyl)-7-(3-fluoro-benzyl)-1,4,6,7-tetrahydro-thiopyrano[4,3-c]pyrazol-3-yl]-ethenesulfonic acid piperidin-1-ylamide]",12%,10%,,
"NC(=O)c1nn(-c2ccc(Cl)cc2Cl)c2c1CS(=O)(=O)C/C2=C\c1ccc(F)cc1 [Cpd 71, (7Z)-1-(2,4-dichloro-phenyl)-7-(4-fluoro-benzylidene)-5,5-dioxo-4,5,6,7-tetrahydro-1H-5λ^6-thiopyrano[4,3-c]pyrazole-3-carboxylic acid amide]",18%,13%,,
"O=C(N[C@H]1c2ccccc2C[C@H]1O)c1nn(-c2ccc(Cl)cc2Cl)c2c1CSC/C2=C\c1ccc(F)cc1 [Cpd 59, (7Z)-1-(2,4-dichloro-phenyl)-7-(4-fluoro-benzylidene)-1,4,6,7-tetrahydro-thiopyrano[4,3-c]pyrazole-3-carboxylic acid [(1S,2R)-2-hydroxy-indan-1-yl]-amide]",,,0.042 µM,inhibition at 0.2 µM (human CB-2 receptor): 25%
"C[C@@H](NS(=O)(=O)/C=C/c1nn(Cc2ccccc2)c2c1CSCC2)c1ccccc1 [Cpd 7, (E)-2-(1-benzyl-1,4,6,7-tetrahydro-thiopyrano[4,3-c]pyrazol-3-yl)-ethenesulfonic acid [(1R)-1-phenyl-ethyl]-amide]",,,,inhibition at 1 µM (human CB1 receptor; [1]): 15%; inhibition at 1 µM (human CB-2 receptor): 44%
"O=S1(=O)Cc2c(/C=C/S(=O)(=O)NN3CCOCC3)nn(-c3ccc(F)cc3F)c2C(Cc2cccc(F)c2)C1 (stereo not drawn) [Cpd 44, (E)-2-[1-(2,4-difluoro-phenyl)-7-(3-fluoro-benzyl)-5,5-dioxo-4,5,6,7-tetrahydro-1H-5λ^6-thiopyrano[4,3-c]pyrazol-3-yl]-ethenesulfonic acid morpholin-4-ylamide]",3%,9%,,
"O=C(NN1CC2CCCC2C1)c1nn(-c2ccc(Cl)cc2Cl)c2c1CS(=O)(=O)C/C2=C\c1ccc(F)cc1 (stereo not drawn) [Cpd 104, (7Z)-1-(2,4-dichloro-phenyl)-7-(4-fluoro-benzylidene)-5,5-dioxo-4,5,6,7-tetrahydro-1H-5λ^6-thiopyrano[4,3-c]pyrazole-3-carboxylic acid (hexahydro-cyclopenta[c]pyrrol-2-yl)-amide]",76%,10%,,
